Patent US8889712B2, “IAP antagonists” (Bristol-Myers Squibb Company, priority 2012, dated 2014)
Like-named read-outs stand apart in the source and are kept apart here.

How the values were obtained:
XIAP BIR3 = biological target: T1, XIAP BIR3 (Homo sapiens, UniProt P98170); test: XIAP-BIR3/SMAC Homogeneous Time Resolved Fluorescence (HTRF) Assay; format: binding
T1 construct: His-BIR3 (241-356, XIAP)
Outline: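 Competition HTRF between XIAP-BIR3 and SMAC; reaction 60 min at room temperature, then anti-6×His-terbium Fab detection for a further 30 min.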

XIAP BIR2-3 = biological target: T2, XIAP BIR2-3 (Homo sapiens, UniProt P98170, C202A/C213G); test: XIAP-BIR2-3 dimeric SMAC Peptide Homogeneous Time Resolved Fluorescence (HTRF) Assay; format: binding
T2 construct: His-BIR2-3 (125-356, C202A/C213G, XIAP)
Method: B. […] Assays were performed in black, flat-bottom, 384-well plates. […] Compounds were dissolved at 3 mM in dimethylsulfoxide (DMSO) and evaluated at eleven serially diluted concentrations. IC50 and Ki values were derived by non-linear regression analysis.

[1] = 1 nM N-His-BIR3 (241-356, XIAP), 5 nM fluorescein labeled SMAC peptide, HTRF signal, read-out: XIAP BIR3 IC50
[2] = 0.5 nM N-His-BIR2-3 (125-356, C202A/C213G, XIAP), 20 nM fluorescein labeled dimeric SMAC peptide, HTRF signal, read-out: XIAP BIR2-3 IC50

T2 sequence (P98170 125-356 C202A/C213G): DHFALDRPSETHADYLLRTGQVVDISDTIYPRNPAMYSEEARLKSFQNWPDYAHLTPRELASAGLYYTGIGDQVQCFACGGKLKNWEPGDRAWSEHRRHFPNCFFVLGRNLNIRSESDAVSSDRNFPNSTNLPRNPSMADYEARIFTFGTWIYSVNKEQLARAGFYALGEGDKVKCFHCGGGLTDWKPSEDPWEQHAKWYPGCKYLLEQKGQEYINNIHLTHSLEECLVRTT
T1 sequence (P98170 241-356): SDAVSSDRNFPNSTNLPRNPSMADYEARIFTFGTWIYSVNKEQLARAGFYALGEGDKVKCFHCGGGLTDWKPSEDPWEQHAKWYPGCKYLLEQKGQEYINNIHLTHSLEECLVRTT

Compound	IC50 (XIAP BIR3; [1]) [nM]	IC50 (XIAP BIR2-3; [2]) [nM]	IC50 (XIAP BIR3) [nM]	IC50 (XIAP BIR2-3) [nM]
CN[C@@H](C)C(=O)N[C@H](C(=O)N1Cc2cc([C@H]3C[C@@H](C(=O)N[C@@H]4CCCc5ccccc54)N(C(=O)[C@@H](NC(=O)[C@H](C)NC)C(C)(C)C)C3)ccc2C[C@H]1C(=O)N[C@@H](Cc1ccccc1)c1noc(C)n1)C(C)(C)C [Example 45, (S)-2-((S)-3,3-Dimethyl-2-((S)-2-(methylamino)propanamido)butanoyl)-7-((3R,5S)-1-((S)-3,3-dimethyl-2-((S)-2-(methylamino)propanamido)butanoyl)-5-(((R)-1,2,3,4-tetrahydronaphthalen-1-yl)carbamoyl)pyrrolidin-3-yl)-N—((S)-1-(5-methyl-1,2,4-oxadiazol-3-yl)-2-phenylethyl)-1,2,3,4-tetrahydroisoquinoline-3-carboxamide]	9.2	4.2		
CN[C@@H](C)C(=O)N[C@H](C(=O)N1C[C@@H](c2ccc3c(c2)CN(C(=O)[C@@H](NC(=O)[C@H](C)NC)C(C)(C)C)[C@H](C(=O)N[C@@H]2CCCc4ccccc42)C3)C[C@H]1C(=O)N[C@@H](Cc1ccccc1)C(N)=O)C(C)(C)C [Example 46, (S)-7-((3R,5S)-5-(((S)-1-Amino-1-oxo-3-phenylpropan-2-yl)carbamoyl)-1-((S)-3,3-dimethyl-2-((S)-2-(methylamino)propanamido)butanoyl)pyrrolidin-3-yl)-2-((S)-3,3-dimethyl-2-((S)-2-(methylamino)propanamido)butanoyl)-N—((R)-1,2,3,4-tetrahydronaphthalen-1-yl)-1,2,3,4-tetrahydroisoquinoline-3-carboxamide]	10.2	1.6		
CN[C@@H](C)C(=O)N[C@H](C(=O)N1C[C@@H](c2ccc3c(c2)CN(C(=O)[C@@H](NC(=O)[C@H](C)NC)C(C)(C)C)[C@H](C(=O)N[C@@H]2CCCc4ccccc42)C3)C[C@H]1C(=O)N[C@@H](Cc1ccccc1)C(=O)N1CCOCC1)C(C)(C)C [Example 47, (S)-2-((S)-3,3-Dimethyl-2-((S)-2-(methylamino)propanamido)butanoyl)-7-((3R,5S)-1-((S)-3,3-dimethyl-2-((S)-2-(methylamino)propanamido)butanoyl)-5-(((S)-1-morpholino-1-oxo-3-phenylpropan-2-yl)carbamoyl)pyrrolidin-3-yl)-N-((R)-1,2,3,4-tetrahydronaphthalen-1-yl)-1,2,3,4-tetrahydroisoquinoline-3-carboxamide]	17.5	2.4		
CN[C@@H](C)C(=O)N[C@H](C(=O)N1C[C@@H](c2ccc3c(c2)CN(C(=O)[C@@H](NC(=O)[C@H](C)NC)C(C)(C)C)[C@H](C(=O)N[C@@H]2CCCc4ccccc42)C3)C[C@H]1C(=O)N[C@@H](Cc1ccccc1)C(=O)NS(=O)(=O)c1ccccc1)C(C)(C)C [Example 48, (S)-2-((S)-3,3-Dimethyl-2-((S)-2-(methylamino)propanamido)butanoyl)-7-((3R,5S)-1-((S)-3,3-dimethyl-2-((S)-2-(methylamino)propanamido)butanoyl)-5-(((S)-1-oxo-3-phenyl-1-(phenylsulfonamido)propan-2-yl)carbamoyl)pyrrolidin-3-yl)-N-((R)-1,2,3,4-tetrahydronaphthalen-1-yl)-1,2,3,4-tetrahydroisoquinoline-3-carboxamide]			0.8	0.7
CN[C@@H](C)C(=O)N[C@H](C(=O)N1C[C@@H](c2ccc3c(c2)CN(C(=O)[C@@H](NC(=O)[C@H](C)NC)C(C)(C)C)[C@H](C(=O)N[C@@H]2CCCc4ccccc42)C3)C[C@H]1C(=O)N[C@@H](Cc1ccccc1)C(=O)NS(=O)(=O)c1ccc2ccccc2c1)C(C)(C)C [Example 49, (S)-2-((S)-3,3-Dimethyl-2-((S)-2-(methylamino)propanamido)butanoyl)-7-((3R,5S)-1-((S)-3,3-dimethyl-2-((S)-2-(methylamino)propanamido)butanoyl)-5-(((S)-1-(naphthalene-2-sulfonamido)-1-oxo-3-phenylpropan-2-yl)carbamoyl)pyrrolidin-3-yl)-N-((R)-1,2,3,4-tetrahydronaphthalen-1-yl)-1,2,3,4-tetrahydroisoquinoline-3-carboxamide]	0.4	0.5		
CN[C@@H](C)C(=O)N[C@H](C(=O)N1C[C@@H](c2ccc3c(c2)CN(C(=O)[C@@H](NC(=O)[C@H](C)NC)C(C)(C)C)[C@H](C(=O)N[C@@H]2CCCc4ccccc42)C3)C[C@H]1C(=O)N[C@@H](Cc1ccccc1)C(=O)NS(=O)(=O)C1CC1)C(C)(C)C [Example 50, (S)-7-((3R,5S)-5-(((S)-1-(Cyclopropanesulfonamido)-1-oxo-3-phenylpropan-2-yl)carbamoyl)-1-((S)-3,3-dimethyl-2-((S)-2-(methylamino)propanamido)butanoyl)pyrrolidin-3-yl)-2-((S)-3,3-dimethyl-2-((S)-2-(methylamino)propanamido)butanoyl)-N-((R)-1,2,3,4-tetrahydronaphthalen-1-yl)-1,2,3,4-tetrahydroisoquinoline-3-carboxamide]	0.9	1.2		
CCNC(=O)[C@H](Cc1ccccc1)NC(=O)[C@@H]1C[C@H](c2ccc3c(c2)CN(C(=O)[C@@H](NC(=O)[C@H](C)NC)C(C)(C)C)[C@H](C(=O)N[C@@H]2CCCc4ccccc42)C3)CN1C(=O)[C@@H](NC(=O)[C@H](C)NC)C(C)(C)C [Example 51, (S)-2-((S)-3,3-Dimethyl-2-((S)-2-(methylamino)propanamido)butanoyl)-7-((3R,5S)-1-((S)-3,3-dimethyl-2-((S)-2-(methylamino)propanamido)butanoyl)-5-(((S)-1-(ethylamino)-1-oxo-3-phenylpropan-2-yl)carbamoyl)pyrrolidin-3-yl)-N-((R)-1,2,3,4-tetrahydronaphthalen-1-yl)-1,2,3,4-tetrahydroisoquinoline-3-carboxamide]	19.4	9.6		
CN[C@@H](C)C(=O)N[C@H](C(=O)N1C[C@@H](c2ccc3c(c2)CN(C(=O)[C@@H](NC(=O)[C@H](C)NC)C(C)(C)C)[C@H](C(=O)N[C@@H]2CCCc4ccccc42)C3)C[C@H]1C(=O)N[C@@H](Cc1ccccc1)C(=O)Nc1nncs1)C(C)(C)C [Example 52, (S)-7-((3R,5S)-5-(((S)-1-((1,3,4-Thiadiazol-2-yl)amino)-1-oxo-3-phenylpropan-2-yl)carbamoyl)-1-((S)-3,3-dimethyl-2-((S)-2-(methylamino)propanamido)butanoyl)pyrrolidin-3-yl)-2-((S)-3,3-dimethyl-2-((S)-2-(methylamino)propanamido)butanoyl)-N-((R)-1,2,3,4-tetrahydronaphthalen-1-yl)-1,2,3,4-tetrahydroisoquinoline-3-carboxamide]	3.4	1.2		
CN[C@@H](C)C(=O)N[C@H](C(=O)N1C[C@@H](c2ccc3c(c2)CN(C(=O)[C@@H](NC(=O)[C@H](C)NC)C(C)(C)C)[C@H](C(=O)N[C@@H]2CCCc4ccccc42)C3)C[C@H]1C(=O)N[C@@H](Cc1ccccc1)C(=O)N(C)CCC(C)C)C(C)(C)C [Example 53, (S)-2-((S)-3,3-Dimethyl-2-((S)-2-(methylamino)propanamido)butanoyl)-7-((3R,5S)-1-((S)-3,3-dimethyl-2-((S)-2-(methylamino)propanamido)butanoyl)-5-(((S)-1-(isopentyl(methyl)amino)-1-oxo-3-phenylpropan-2-yl)carbamoyl)pyrrolidin-3-yl)-N-((R)-1,2,3,4-tetrahydronaphthalen-1-yl)-1,2,3,4-tetrahydroisoquinoline-3-carboxamide]	53.9	86.9		
CN[C@@H](C)C(=O)N[C@H](C(=O)N1C[C@@H](c2ccc3c(c2)CN(C(=O)[C@@H](NC(=O)[C@H](C)NC)C(C)(C)C)[C@H](C(=O)N[C@@H]2CCCc4ccccc42)C3)C[C@H]1C(=O)N[C@@H](Cc1ccccc1)C(=O)N(C)CCc1ccccn1)C(C)(C)C [Example 54, (S)-2-((S)-3,3-Dimethyl-2-((S)-2-(methylamino)propanamido)butanoyl)-7-((3R,5S)-1-((S)-3,3-dimethyl-2-((S)-2-(methylamino)propanamido)butanoyl)-5-(((S)-1-(methyl(2-(pyridin-2-yl)ethyl)amino)-1-oxo-3-phenylpropan-2-yl)carbamoyl)pyrrolidin-3-yl)-N-((R)-1,2,3,4-tetrahydronaphthalen-1-yl)-1,2,3,4-tetrahydroisoquinoline-3-carboxamide]	6.8	2.9		
CN[C@@H](C)C(=O)N[C@H](C(=O)N1C[C@@H](c2ccc3c(c2)CN(C(=O)[C@@H](NC(=O)[C@H](C)NC)C(C)(C)C)[C@H](C(=O)N[C@@H]2CCCc4ccccc42)C3)C[C@H]1C(=O)N[C@@H](Cc1ccccc1)C(=O)N(C)CCOC)C(C)(C)C [Example 55, (S)-2-((S)-3,3-Dimethyl-2-((S)-2-(methylamino)propanamido)butanoyl)-7-((3R,5S)-1-((S)-3,3-dimethyl-2-((S)-2-(methylamino)propanamido)butanoyl)-5-(((S)-1-((2-methoxyethyl)(methyl)amino)-1-oxo-3-phenylpropan-2-yl)carbamoyl)pyrrolidin-3-yl)-N-((R)-1,2,3,4-tetrahydronaphthalen-1-yl)-1,2,3,4-tetrahydroisoquinoline-3-carboxamide]	37.7	8.5		
